# Data from patent US10532103B2, “Degradation of cyclin-dependent kinase 9 (CDK9) by conjugation of CDK9 inhibitors with E3 ligase ligand and methods of use” (Dana-Farber Cancer Institute, Inc., priority 2016, dated 2020).
# Entries after “also recorded” stand apart in the source; their conditions may differ.
# How the values were obtained:
# Assay type in all cases: cell-based
# CDK12 = biological target: T1, CDK12 (Homo sapiens, UniProt Q9NYV4); assay: Enzyme degradation assay (western blot) in Jurkat cells, CDK12; settings: for degradation of CDK12: 6 hours
# T1 construct: endogenous in cells; host or cells: Jurkat cells
# T1 sequence (Q9NYV4 whole entry): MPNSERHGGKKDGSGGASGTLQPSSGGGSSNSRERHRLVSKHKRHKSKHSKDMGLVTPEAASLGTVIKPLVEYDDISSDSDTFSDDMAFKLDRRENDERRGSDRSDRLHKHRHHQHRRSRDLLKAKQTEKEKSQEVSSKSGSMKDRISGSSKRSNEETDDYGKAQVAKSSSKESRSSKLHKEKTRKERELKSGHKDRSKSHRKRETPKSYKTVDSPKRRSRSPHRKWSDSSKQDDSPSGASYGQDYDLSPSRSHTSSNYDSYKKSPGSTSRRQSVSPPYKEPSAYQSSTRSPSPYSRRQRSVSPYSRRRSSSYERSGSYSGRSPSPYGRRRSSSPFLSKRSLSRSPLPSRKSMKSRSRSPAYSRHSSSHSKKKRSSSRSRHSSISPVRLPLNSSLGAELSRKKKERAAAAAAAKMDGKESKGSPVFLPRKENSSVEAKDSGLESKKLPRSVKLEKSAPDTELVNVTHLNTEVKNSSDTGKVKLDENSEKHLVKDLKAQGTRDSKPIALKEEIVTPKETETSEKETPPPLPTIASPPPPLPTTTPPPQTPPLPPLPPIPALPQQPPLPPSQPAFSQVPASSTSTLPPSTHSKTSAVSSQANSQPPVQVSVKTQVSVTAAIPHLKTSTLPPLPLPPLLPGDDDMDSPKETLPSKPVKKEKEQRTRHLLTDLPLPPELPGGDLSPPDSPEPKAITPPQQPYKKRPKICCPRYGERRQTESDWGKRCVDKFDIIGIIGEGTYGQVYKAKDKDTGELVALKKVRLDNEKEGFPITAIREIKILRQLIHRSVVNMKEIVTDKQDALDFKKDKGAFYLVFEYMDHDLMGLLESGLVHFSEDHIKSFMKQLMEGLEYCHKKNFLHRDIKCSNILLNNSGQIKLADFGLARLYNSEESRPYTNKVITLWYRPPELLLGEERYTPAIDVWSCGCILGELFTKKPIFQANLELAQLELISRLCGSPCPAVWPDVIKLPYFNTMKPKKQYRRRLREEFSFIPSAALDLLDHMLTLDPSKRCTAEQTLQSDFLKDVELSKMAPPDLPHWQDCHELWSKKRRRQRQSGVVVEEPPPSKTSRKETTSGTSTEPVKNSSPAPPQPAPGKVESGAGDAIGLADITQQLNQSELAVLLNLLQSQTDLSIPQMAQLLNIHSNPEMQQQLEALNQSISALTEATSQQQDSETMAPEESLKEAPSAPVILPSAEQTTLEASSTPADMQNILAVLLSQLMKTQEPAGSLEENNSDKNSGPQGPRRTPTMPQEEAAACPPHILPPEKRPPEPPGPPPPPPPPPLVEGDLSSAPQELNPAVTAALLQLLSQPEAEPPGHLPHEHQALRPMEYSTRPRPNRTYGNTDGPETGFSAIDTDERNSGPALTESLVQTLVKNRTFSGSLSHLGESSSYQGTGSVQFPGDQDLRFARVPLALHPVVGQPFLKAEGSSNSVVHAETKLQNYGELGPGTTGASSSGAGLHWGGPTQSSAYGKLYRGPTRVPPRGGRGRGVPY
# T1 sequence (O75909 whole entry partner): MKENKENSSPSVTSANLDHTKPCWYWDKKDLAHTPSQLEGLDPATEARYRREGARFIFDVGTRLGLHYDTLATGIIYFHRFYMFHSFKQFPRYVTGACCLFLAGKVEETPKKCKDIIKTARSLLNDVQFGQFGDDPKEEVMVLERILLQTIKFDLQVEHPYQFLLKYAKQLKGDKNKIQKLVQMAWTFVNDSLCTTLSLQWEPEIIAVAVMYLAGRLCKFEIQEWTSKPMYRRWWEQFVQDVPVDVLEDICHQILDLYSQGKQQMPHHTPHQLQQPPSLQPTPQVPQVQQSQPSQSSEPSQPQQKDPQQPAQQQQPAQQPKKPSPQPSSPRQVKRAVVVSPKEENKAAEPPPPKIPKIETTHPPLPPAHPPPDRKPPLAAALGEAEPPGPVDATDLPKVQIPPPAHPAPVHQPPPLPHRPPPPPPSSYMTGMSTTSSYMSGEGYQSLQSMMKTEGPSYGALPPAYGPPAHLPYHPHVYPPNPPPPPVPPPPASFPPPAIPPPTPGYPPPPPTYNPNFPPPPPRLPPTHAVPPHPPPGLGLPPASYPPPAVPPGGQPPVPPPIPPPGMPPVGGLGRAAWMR
# Procedure: (§1) Cells are treated with a control or a bifunctional compound of the application alone or in combination with an agent that blocks proteasomal degradation at a single concentration or various concentrations. After treatment, cells are washed and harvested by resuspending in buffer and lysed on ice 30 minutes. Lysates are then cleared by centrifugation. Samples are boiled and equal amount of protein is loaded onto polyacrylamide gel. The gel is transferred to nitrocellulose and blotted for CDK13, CDK12, CDK9, CDK7, CDK2, CDK1, PolII serine 2 phosphorylation or Tubulin.
# (§2) Jurkat cells were treated with DMSO (as a control) or 500 nM of SNS-032 or 500 nM of a bifunctional compound of the application (i.e., Compound I-1, Compound I-2, or Compound I-3) or in combination with 5 μM MG132 for 6 hours. MGl32 is an agent that blocks proteasomal degradation. After treatment, cells were washed and harvested by resuspending in RIPA lysis buffer ([…] Tris-HCl, […] NaCl, 1% NP-40, 0.5% sodium deoxycholate, and 1% SDS, pH 7.4, protease and phosphatase inhibitors) and lysed on ice 30 minutes. Lysates were cleared by centrifugation at 15,000 rpm 30 minutes. Samples were boiled and equal amounts of protein were loaded onto gel. The gel was transferred to nitrocellulose and blotted for CDK13, CDK12, CDK9, CDK7, CDK2, CDK1, or tubulin.
# (§3) Jurkat cells were treated with 500 nM of Compound I-3 for 15 minutes, 30 minutes, 1 hour, 2 hours, 3 hours, 4 hours, or 6 hours or DMSO control for 6 hours. After treatment, cells were washed and harvested by resuspending in RIPA lysis buffer ([…] Tris-HCl, […], 1% NP-40, 0.5% sodium deoxycholate, and 1% SDS, pH 7.4, protease and phosphatase inhibitors) and lysed on ice 30 minutes. Equal amount of protein was loaded onto gel and blotted for CDK13, CDK12, CDK9, or tubulin.
# Molt4 wild-type cells = assay: Cell viability assay (celltiter glo), wild-type cells; settings: wild-type (WT) Molt4 cells, titration, 72 hours
# Procedure: (§4) Wild-type or cereblon null cells are treated with various concentrations of a bifunctional compound of the invention and allowed to grow. Cells are then assayed to determine cell viability by measuring the amount of ATP present, which is an indicator of cell metabolic activity. Results are graphed as relative luminescent values.
# (§5) Molt4 wild-type or cereblon null cells were treated with a titration of a bifunctional compound of the invention (i.e., Compound I-1, Compound I-2, or Compound I-3) and allowed to grow for 72 hours. Cells were assayed using celltiter glo (Promega) to determine cell viability by measuring the amount of ATP present, which is an indicator of cell metabolic activity. Results are graphed as relative luminescent values.
# [1] = system: Molt4 cereblon null cells (CRBN−/−); assay: Cell viability assay (celltiter glo), cereblon null cells; settings: cereblon knockout (CRBN−/−) Molt4 cells, titration, 72 hours
# Procedure: as §4, §5
# [2] = system: PolII serine 2 phosphorylation; assay: Western blot for PolII serine 2 phosphorylation in Jurkat cells; settings: various concentrations, 6 hours
# Procedure: as §1
# as §3, with “a DMSO (as a control) or various concentrations SNS-032 or” for “500 nM of”, “I-3” for “I-3 for 15 minutes, 30 minutes, 1 hour, 2 hours, 3 hours, 4 hours, or 6 hours or DMSO control”, “[…],” for “CDK13, CDK12,”
# CDK13 = biological target: T2, CDK13 (Homo sapiens, UniProt Q14004); assay: Enzyme degradation assay (western blot) in Jurkat cells, CDK13
# T2 construct: endogenous in cells; host or cells: Jurkat cells
# T2 sequence (Q14004 whole entry): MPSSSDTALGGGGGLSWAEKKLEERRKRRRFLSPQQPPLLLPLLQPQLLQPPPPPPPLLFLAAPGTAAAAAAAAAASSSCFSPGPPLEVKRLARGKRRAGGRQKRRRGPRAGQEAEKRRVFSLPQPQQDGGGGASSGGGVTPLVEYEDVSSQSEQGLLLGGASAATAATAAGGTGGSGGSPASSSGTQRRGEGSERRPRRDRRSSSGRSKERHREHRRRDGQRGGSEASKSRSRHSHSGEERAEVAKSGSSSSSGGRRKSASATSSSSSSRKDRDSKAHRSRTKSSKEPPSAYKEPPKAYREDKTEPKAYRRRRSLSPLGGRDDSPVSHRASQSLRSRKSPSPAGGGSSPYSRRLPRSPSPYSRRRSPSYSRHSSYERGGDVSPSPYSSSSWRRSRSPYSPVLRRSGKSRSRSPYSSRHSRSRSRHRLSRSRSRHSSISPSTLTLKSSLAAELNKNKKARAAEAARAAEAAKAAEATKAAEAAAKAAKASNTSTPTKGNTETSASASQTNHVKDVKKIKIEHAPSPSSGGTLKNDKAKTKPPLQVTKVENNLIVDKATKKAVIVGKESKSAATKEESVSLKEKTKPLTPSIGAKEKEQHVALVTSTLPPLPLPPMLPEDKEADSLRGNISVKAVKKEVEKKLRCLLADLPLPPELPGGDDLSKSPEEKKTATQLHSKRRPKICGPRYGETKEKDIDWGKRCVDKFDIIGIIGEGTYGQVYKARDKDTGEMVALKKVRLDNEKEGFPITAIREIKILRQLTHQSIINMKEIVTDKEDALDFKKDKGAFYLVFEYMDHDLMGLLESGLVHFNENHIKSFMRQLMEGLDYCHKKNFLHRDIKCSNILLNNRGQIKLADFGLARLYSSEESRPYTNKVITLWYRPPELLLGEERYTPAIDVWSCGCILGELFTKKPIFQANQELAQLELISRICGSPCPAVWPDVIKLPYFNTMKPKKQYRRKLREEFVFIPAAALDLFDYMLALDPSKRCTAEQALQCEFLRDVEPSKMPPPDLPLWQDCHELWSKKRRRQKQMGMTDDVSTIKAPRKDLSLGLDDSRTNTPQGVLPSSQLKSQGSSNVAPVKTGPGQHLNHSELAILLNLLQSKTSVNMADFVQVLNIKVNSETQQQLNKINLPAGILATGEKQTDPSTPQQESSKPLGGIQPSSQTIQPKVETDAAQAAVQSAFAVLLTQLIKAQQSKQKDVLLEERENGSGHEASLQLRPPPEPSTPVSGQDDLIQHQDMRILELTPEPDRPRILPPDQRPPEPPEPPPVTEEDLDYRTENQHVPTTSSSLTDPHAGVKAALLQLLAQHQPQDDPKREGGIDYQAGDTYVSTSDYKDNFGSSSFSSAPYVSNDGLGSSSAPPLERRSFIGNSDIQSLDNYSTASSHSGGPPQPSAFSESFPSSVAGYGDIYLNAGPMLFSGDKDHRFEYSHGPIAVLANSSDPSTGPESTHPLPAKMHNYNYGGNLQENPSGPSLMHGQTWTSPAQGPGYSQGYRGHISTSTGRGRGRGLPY
# T2 sequence (O75909 whole entry partner): as the sequence (O75909 whole entry partner) above
# Procedure: as §1, §2
# (§6) Alternatively, Jurkat cells were treated with DMSO (as a control) or various concentrations of Compound I-3 alone (about 312 nm, 625 nm, 1.25 uM, 2.5 uM, and 5 uM) or with 5 μM MG132. After treatment, cells were washed and harvested by resuspending in RIPA lysis buffer ([…] Tris-HCl, […] NaCl, 1% NP-40, 0.5% sodium deoxycholate, and 1% SDS, pH 7.4, protease and phosphatase inhibitors) and lysed on ice 30 minutes. Equal amount of protein was loaded onto gel and blotted for CDK13, CDK9, CDK7, CDK2, CDK1, or tubulin.
# as §3
# CDK9 = biological target: T3, CDK9 (Homo sapiens, UniProt P50750); assay: Enzyme degradation assay (western blot) in Jurkat cells, CDK9
# T3 construct: endogenous in cells; host or cells: Jurkat cells
# T3 sequence (P50750 whole entry): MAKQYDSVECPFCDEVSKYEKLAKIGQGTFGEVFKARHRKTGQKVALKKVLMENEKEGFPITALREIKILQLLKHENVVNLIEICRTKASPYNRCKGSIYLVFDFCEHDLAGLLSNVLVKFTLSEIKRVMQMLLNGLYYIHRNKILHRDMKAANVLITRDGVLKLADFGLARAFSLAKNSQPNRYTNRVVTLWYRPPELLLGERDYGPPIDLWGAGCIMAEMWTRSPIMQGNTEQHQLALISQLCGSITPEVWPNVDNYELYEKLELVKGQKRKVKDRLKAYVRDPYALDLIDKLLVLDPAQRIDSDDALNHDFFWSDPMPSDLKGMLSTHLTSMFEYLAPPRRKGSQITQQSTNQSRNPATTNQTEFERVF
# T3 sequence (O60563 whole entry partner): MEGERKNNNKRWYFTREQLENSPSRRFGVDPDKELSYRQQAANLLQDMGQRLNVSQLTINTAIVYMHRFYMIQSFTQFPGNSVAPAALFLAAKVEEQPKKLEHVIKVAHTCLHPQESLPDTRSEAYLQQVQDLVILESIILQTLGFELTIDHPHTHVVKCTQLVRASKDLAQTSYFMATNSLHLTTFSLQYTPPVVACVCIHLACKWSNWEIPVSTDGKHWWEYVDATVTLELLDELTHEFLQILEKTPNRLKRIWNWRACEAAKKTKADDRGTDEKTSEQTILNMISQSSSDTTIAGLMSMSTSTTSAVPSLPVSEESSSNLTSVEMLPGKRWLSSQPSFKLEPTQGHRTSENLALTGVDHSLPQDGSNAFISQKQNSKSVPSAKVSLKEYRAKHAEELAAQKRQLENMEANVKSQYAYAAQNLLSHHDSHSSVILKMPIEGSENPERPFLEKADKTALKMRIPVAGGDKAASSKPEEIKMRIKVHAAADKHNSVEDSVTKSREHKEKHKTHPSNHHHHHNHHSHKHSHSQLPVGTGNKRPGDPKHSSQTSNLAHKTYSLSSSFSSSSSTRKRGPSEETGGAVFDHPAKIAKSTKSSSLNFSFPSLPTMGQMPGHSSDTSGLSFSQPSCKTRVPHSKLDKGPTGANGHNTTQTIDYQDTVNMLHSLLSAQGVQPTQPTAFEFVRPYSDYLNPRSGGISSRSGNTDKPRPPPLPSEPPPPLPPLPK
# Procedure: as §1, §2, §6
# as §3, with “a DMSO (as a control) or various concentrations SNS-032 or” for “500 nM of”, “I-3” for “I-3 for 15 minutes, 30 minutes, 1 hour, 2 hours, 3 hours, 4 hours, or 6 hours or DMSO control”, “[…],” for “CDK13, CDK12,”
# as §3
"CDK12 levels over time (CDK12; 500 nM, 15 minutes to 6 hours)",degradation of CDK12 (CDK12; 500 nM),"CDK13 levels over time (CDK13; 500 nM, 15 minutes to 6 hours)","degradation of CDK13 (CDK13; 500 nM, 6 hours)","degradation of CDK13, various concentrations, with MG132 (CDK13; with 5 μM MG132, 6 hours)","degradation of CDK9 (CDK9; 500 nM, 6 hours)","degradation of CDK9, various concentrations, with MG132 (CDK9; with 5 μM MG132, 6 hours)",Structure (SMILES),"degradation of CDK12 on co-treatment with MG132 (CDK12; 500 nM + 5 uM MG132, 6 hours)",anti-proliferative effect (Molt4 wild-type cells),anti-proliferative effect [1],serine 2 phosphorylation of PolII [2],"degradation of CDK13 on co-treatment with MG132 (CDK13; 500 nM + 5 uM MG132, 6 hours)","degradation of CDK13, various concentrations (CDK13; about 312 nm to 5 uM, 6 hours)","degradation of CDK9 on co-treatment with MG132 (CDK9; 500 nM + 5 uM MG132, 6 hours)","CDK9 levels over time (CDK9; 500 nM, 15 minutes to 6 hours)","degradation of CDK9, various concentrations (CDK9; about 312 nm to 5 uM, 6 hours)"
unaffected,partial degradation,unaffected,partial degradation,abolished,complete degradation,abolished degradation of CDK9,"CC(C)(C)c1cnc(CSc2cnc(NC(=O)C3CCN(CC(=O)NCCOCCOCCOCCNc4cccc5c4C(=O)N(C4CCC(=O)NC4=O)C5=O)CC3)s2)o1 (centres unmarked) [Compound I-3, N-(5-(((5-(tert-butyl)oxazol-2-yl)methyl)thio)thiazol-2-yl)-1-(14-((2-(2,6-dioxopiperidin-3-yl)-1,3-dioxoisoindolin-4-yl)amino)-2-oxo-6,9,12-trioxa-3-azatetradecyl)piperidine-4-carboxamide]",abolished; also recorded: largely inhibited,showed antiproliferative effects; also recorded: caused anti-proliferation,not in the CRBN−/− cells; also recorded: anti-proliferation was no longer observed,decreased serine 2 phosphorylation,abolished; also recorded: largely inhibited,CDK13 degradation at higher concentrations; also recorded: degradation also increased,reduced; also recorded: largely inhibited,decrease in CDK9 levels over time; also recorded: degradation of CDK9 increased with time of exposure,specificity for CDK9 at lower concentrations; also recorded: degradation also increased
–,no degradation,–,no degradation,–,no degradation,–,"CC(C)(C)c1cnc(CSc2cnc(NC(=O)C3CCNCC3)s2)o1 [SNS032, N-(5-(((5-(tert-butyl)oxazol-2-yl)methyl)thio)thiazol-2-yl)piperidine-4-carboxamide, reference compound]",–,–,–,decreased serine 2 phosphorylation,–,–,–,–,–
